Where no end group is shown, it is not given here. [ ]: non-standard residue; d: D form. mp4 = 4 mini PEG linker
Key:
healed fractured femur [1] = test: Femur fracture model, postmortem four-point bend of the healed femur; format: in vivo, Swiss Webster mice; details: 16 days, 0.1, 1 and 10 nmol daily subcutaneous, n=5
[2] = tested on: fracture callus of fractured femur; test: Femur fracture model, microCT of the fracture callus, CD-1 mice; format: in vivo, CD-1 male mice; details: 4 weeks, 50 nmol daily subcutaneous (50×), n=10
Description: The targeted conjugates were synthesized using standard Fmoc solid-phase peptide synthesis, as described above. To ensure the conjugates' activity, mouse pre osteo-blast (MCTC3-1) cells were treated with the targeted and untargeted compounds for three days at concentrations from 1 pM to 100 nM. After three days of treatment, the cells were harvested, and the ribonucleic acid (RNA) was purified from the cells. Expression levels of ALP, RUNx2, OSX, osteo-pontin (OPN), collagen 1A (Col-1A), OPG, RANKL, scle-rostin gene (SOST), and OC were quantified via quantitative reverse transcription polymerase chain reaction (RT-qPCR). Once the biological activity of the conjugates was confirmed, they were tested in vivo in a fracture model. Aseptic surgical techniques were used to place a 23-gage needle as in intramedullary nail in the femur of anesthetized, 12-week-old Swiss Webster mice for internal fixation before fracture. Femur fractures were induced using a drop weight fracture device from RISystem. The mice received buprenorphine for three days post fracture. […] Fracture healing was assessed using microCT (Scanco Medical Ag). Morphometric parameters were quantified in the 100 widest slices of the fracture callus. Trabecular thickness (TbTh), trabecular spacing (TbSp), total volume (TV), and volume of calcified callus (BV) were calculated. […]

healed fractured femur [3] = test: Femur fracture model, postmortem four-point bend of the healed femur, CD-1 mice; format: in vivo, CD-1 male mice; details: 4 weeks, 50 nmol daily subcutaneous (50×), n=10
Description: The targeted conjugates were synthesized using standard Fmoc solid-phase peptide synthesis, as described above. To ensure the conjugates' activity, mouse pre osteo-blast (MCTC3-1) cells were treated with the targeted and untargeted compounds for three days at concentrations from 1 pM to 100 nM. After three days of treatment, the cells were harvested, and the ribonucleic acid (RNA) was purified from the cells. Expression levels of ALP, RUNx2, OSX, osteo-pontin (OPN), collagen 1A (Col-1A), OPG, RANKL, scle-rostin gene (SOST), and OC were quantified via quantitative reverse transcription polymerase chain reaction (RT-qPCR). Once the biological activity of the conjugates was confirmed, they were tested in vivo in a fracture model. Aseptic surgical techniques were used to place a 23-gage needle as in intramedullary nail in the femur of anesthetized, 12-week-old Swiss Webster mice for internal fixation before fracture. Femur fractures were induced using a drop weight fracture device from RISystem. The mice received buprenorphine for three days post fracture. The mice were dosed subcutaneously each day for two weeks, three weeks, 4 weeks, or 17 days. Fracture healing was assessed using microCT (Scanco Medical Ag). Morphometric parameters were quantified in the 100 widest slices of the fracture callus. Trabecular thickness (TbTh), trabecular spacing (TbSp), total volume (TV), and volume of calcified callus (BV) were calculated. Fractured femurs were tested for strength in a four-point bend to failure using an Electro Force TestBench (TA Instruments). Lower supports were 10 mm apart on the anterior face of the femur in contact with the proximal and distal diaphysis. Upper supports were 4 mm apart and spanned the entire fracture callus on the diaphysis. Force was applied from the posterior face of the femur with a displacement rate of 0.3 mm/sec. Peak load, yield load, stiffness, displacement post yield, work to fracture, and deformation data were generated. […]

healed fractured femur [4] = test: Femur fracture model, postmortem four-point bend of the healed femur; format: in vivo, Swiss Webster mice
Description: All in vivo data included herein are from Swiss Webster mice. All mice received an osteotomy on their right femur and received subcutaneous drug administration daily for either 2, 3 or 4 weeks, as indicated, for each compound. 1×concentration represents 1 nmol/day, 10× represents 10 nmol/day, 100×represents 100 nmol/day and most studies have an n of 5.
The term “Peak Load” means a postmortem 4 point bend of the healed femur. Peak load represents the maximum force the healed femur withstood before it refractured.
(§1) The targeted conjugates were synthesized using standard Fmoc solid-phase peptide synthesis, as described above. To ensure the conjugates' activity, mouse pre osteo-blast (MCTC3-1) cells were treated with the targeted and untargeted compounds for three days at concentrations from 1 pM to 100 nM. After three days of treatment, the cells were harvested, and the ribonucleic acid (RNA) was purified from the cells. Expression levels of ALP, RUNx2, OSX, osteo-pontin (OPN), collagen 1A (Col-1A), OPG, RANKL, scle-rostin gene (SOST), and OC were quantified via quantitative reverse transcription polymerase chain reaction (RT-qPCR). Once the biological activity of the conjugates was confirmed, they were tested in vivo in a fracture model. Aseptic surgical techniques were used to place a 23-gage needle as in intramedullary nail in the femur of anesthetized, 12-week-old Swiss Webster mice for internal fixation before fracture. Femur fractures were induced using a drop weight fracture device from RISystem. The mice received buprenorphine for three days post fracture. The mice were dosed subcutaneously each day for two weeks, three weeks, 4 weeks, or 17 days. Fracture healing was assessed using microCT (Scanco Medical Ag). Morphometric parameters were quantified in the 100 widest slices of the fracture callus. Trabecular thickness (TbTh), trabecular spacing (TbSp), total volume (TV), and volume of calcified callus (BV) were calculated. Fractured femurs were tested for strength in a four-point bend to failure using an Electro Force TestBench (TA Instruments). Lower supports were 10 mm apart on the anterior face of the femur in contact with the proximal and distal diaphysis. Upper supports were 4 mm apart and spanned the entire fracture callus on the diaphysis. Force was applied from the posterior face of the femur with a displacement rate of 0.3 mm/sec. Peak load, yield load, stiffness, displacement post yield, work to fracture, and deformation data were generated. Statistical analysis was performed using a two-way analysis of variance (ANOVA) and a Tukey post-hoc analysis with significance reported at the 95% confidence level. All animal experiments were performed in accordance with protocols approved by Purdue University's Institutional Animal Care and Use Committee (IACUC).

[5] = tested on: fracture callus of fractured femur; test: Femur fracture model, microCT of the fracture callus (BV/TV, BV, TbTh, TbSp); format: in vivo, Swiss Webster mice
Description: All in vivo data included herein are from Swiss Webster mice. […] 1×concentration represents 1 nmol/day, 10× represents 10 nmol/day, 100×represents 100 nmol/day and most studies have an n of 5.
The term “BV/TV” means the bone volume divided by total volume of the 100 thickest micro CT slices of the fracture callus.
The term “TbTh” means the trabecular thickness of the 100 thickest micro CT slices of the fracture callus.
The term “[…]” means the overall bone volume of the 100 thickest micro CT slices of the fracture callus.
The term “TbSp” means the spacing between the trabecula in the 100 thickest micro CT slices of the fracture callus.
as §1, with “The mice were dosed subcutaneously each day for two weeks, three weeks, 4 weeks, or 17 days.” left out

[6] = 17 days, 1, 10 and 100 nmol daily subcutaneous, n=5

Q: For “Annexin_mp4_(D)E10: Annexin 1 N-terminal fragment with 10 glutamic acids, SEQ ID NO: 26, FIG. 81 (Ac-AMVSEFLKQAWFIENEEQEYVQTVY-{mini PEG-mini PEG-mini PEG-mini PEG-dE-dE-dE-dE-dE-dE-dE-dE-dE-dE})”, which “Max load (bone strength)” value (healed fractured femur [1]) is on record?
A: Its value is “raises bone strength”.

Q: And the “Work to fracture (bone strength)” value (healed fractured femur [1])?
A: Its value is “raises bone strength”.

Q: With “Preptin(1-34)_mp4_(D)E10: Preptin (1-34) with mp4 linker and 10 glutamic acids, SEQ ID NO: 24, FIG. 70 ({dE-dE-dE-dE-dE-dE-dE-dE-dE-dE-mp4}-VRGASQRWTDYQFFGVPYRPFDPLVAQSTSVD)” as the substance, how does the “BV (bone volume, bone mineralization)” value [2] read?
A: The value was “significantly raises bone mineralization”.

Q: And the “BV/TV (bone density)” value [2]?
A: Its value is “significantly raises bone density”.

Q: And the “Max load (bone strength)” value (healed fractured femur [3])?
A: The value was “significantly raises bone strength”.

Q: And the “Post yield displacement (bone brittleness)” value (healed fractured femur [3])?
A: The value was “significantly reduces the bone brittleness”.

Q: What about the “Work to fracture (bone strength)” value (healed fractured femur [3]) of the same substance?
A: Its value is “significantly raises bone strength”.

Q: What does the source list for “QK_mp4_(D)E10: VEGF mimetic 15 amino acid peptide QK attached by mini-peg spacer to 10 glutamic acids, SEQ ID NO: 25 ({dE-dE-dE-dE-dE-dE-dE-dE-dE-dE-mp4}-KLTWQELYQLKYKGI)”?
A: Max load (bone strength) (healed fractured femur [4]; [6]): raises bone strength; Work to fracture (bone strength) (healed fractured femur [4]; [6]): raises bone strength; BV (bone volume, bone mineralization) [5, 6]: raises bone mineralization; BV/TV (bone density) [5, 6]: raises bone density

Q: For “substance P D10: substance P with 4 mini PEG linker and conjugated with 10 aspartate acids, SEQ ID NO: 4/43, FIG. 32 (chain 1 {Asp-Asp-Asp-Asp-Asp-Asp-Asp-Asp-Asp-Asp-mp4}-RPKPQQFFGLM; chain 2 DDDDDDDDDD[mp4]RPKPQQFFGLM; ends and bridges not checked)”, which “peak load (max load) of healed femur” value (healed fractured femur [4]; 4 weeks, 10× (10 nmol/day)) is on record?
A: Its value is 30-35 Newtons.

Q: What about the BV/TV ([5]; 4 weeks, various concentrations (1, 10 and in part 100 nmol/day), subcutaneous daily) of the same substance?
A: Its BV/TV is “dose dependent manner”.
